Measurements published in paper PMC11240139, “Exploring the antitumor potential of novel quinoline derivatives via tubulin polymerization inhibition in breast cancer; design, synthesis and molecular docking” (RSC Advances, 2024).

Columns and labels:
CAKI-1 (renal cancer) = experiment: NCI-60 SRB cytotoxicity screen; format: cell-based; conditions: Homo sapiens; CAKI-1, single dose 10 μM; read-out: growth inhibition (GI%)
SNB-75 (CNS cancer) = experiment: NCI-60 SRB cytotoxicity screen; format: cell-based; conditions: Homo sapiens, SNB-75, SNB-75, single dose 10 μM; read-out: growth inhibition (GI%)
A498 (renal cancer) = experiment: NCI-60 SRB cytotoxicity screen; format: cell-based; conditions: Homo sapiens; A498, single dose 10 μM; read-out: growth inhibition (GI%)
SK-MEL-2 (melanoma) = experiment: NCI-60 SRB cytotoxicity screen; format: cell-based; conditions: Homo sapiens; SK-MEL-2, single dose 10 μM; read-out: growth inhibition (GI%)
PC-3 (prostate cancer) = experiment: NCI-60 SRB cytotoxicity screen; format: cell-based; conditions: PC-3, single dose 10 μM; read-out: growth inhibition (GI%)
MALME-3M (melanoma) = experiment: NCI-60 SRB cytotoxicity screen; format: cell-based; conditions: Homo sapiens, single dose 10 μM, read-out: growth inhibition (GI%)
SK-OV-3 (ovarian cancer) = experiment: NCI-60 SRB cytotoxicity screen; format: cell-based; conditions: Homo sapiens; SK-OV-3, single dose 10 μM; read-out: growth inhibition (GI%)
LOX IMVI (melanoma) = experiment: NCI-60 SRB cytotoxicity screen; format: cell-based; conditions: Homo sapiens, single dose 10 μM, read-out: growth inhibition (GI%)
[1] = system: NCI-H322M (non-small cell lung cancer); experiment: NCI-60 SRB cytotoxicity screen; format: cell-based; conditions: Homo sapiens, single dose 10 μM, read-out: growth inhibition (GI%)
CCRF-CEM (leukemia) = experiment: NCI-60 SRB cytotoxicity screen; format: cell-based; conditions: Homo sapiens, single dose 10 μM, read-out: growth inhibition (GI%)
[2] = system: HOP-92 (non-small cell lung cancer); experiment: NCI-60 SRB cytotoxicity screen; format: cell-based; conditions: Homo sapiens; HOP-92, single dose 10 μM; read-out: growth inhibition (GI%)
MOLT-4 (leukemia) = experiment: NCI-60 SRB cytotoxicity screen; format: cell-based; conditions: Homo sapiens; MOLT-4, single dose 10 μM; read-out: growth inhibition (GI%)
[3] = system: MDA-MB-231/ATCC (breast cancer); experiment: NCI-60 SRB cytotoxicity screen; format: cell-based; conditions: Homo sapiens, MDA-MB-231, read-out: growth inhibition (GI%);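 also: growth inhibition in percent at a single 10 µM dose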
UO-31 (renal cancer) = experiment: NCI-60 SRB cytotoxicity screen; format: cell-based; conditions: Homo sapiens; UO-31, single dose 10 μM; read-out: growth inhibition (GI%)
OVCAR-5 (ovarian cancer) = experiment: NCI-60 SRB cytotoxicity screen; format: cell-based; conditions: Homo sapiens; OVCAR-5, single dose 10 μM; read-out: growth inhibition (GI%)
[4] = system: NCI-H460 (non-small cell lung cancer); experiment: NCI-60 SRB cytotoxicity screen; format: cell-based; conditions: Homo sapiens; NCI-H460, single dose 10 μM; read-out: growth inhibition (GI%)
[5] = system: A549/ATCC (non-small cell lung cancer); experiment: NCI-60 SRB cytotoxicity screen; format: cell-based; conditions: Homo sapiens, single dose 10 μM, read-out: growth inhibition (GI%)
SF-295 (CNS cancer) = experiment: NCI-60 SRB cytotoxicity screen; format: cell-based; conditions: Homo sapiens; SF-295, single dose 10 μM; read-out: growth inhibition (GI%)
U251 (CNS cancer) = experiment: NCI-60 SRB cytotoxicity screen; format: cell-based; conditions: Homo sapiens, U-251; U251, single dose 10 μM; read-out: growth inhibition (GI%)
SW-620 (colon cancer) = experiment: NCI-60 SRB cytotoxicity screen; format: cell-based; conditions: Homo sapiens; SW-620, single dose 10 μM; read-out: growth inhibition (GI%)
UACC-257 (melanoma) = experiment: NCI-60 SRB cytotoxicity screen; format: cell-based; conditions: Homo sapiens; UACC-257, single dose 10 μM; read-out: growth inhibition (GI%)
[6] = system: NCI/ADR-RES (ovarian cancer); experiment: NCI-60 SRB cytotoxicity screen; format: cell-based; conditions: Homo sapiens, single dose 10 μM, read-out: growth inhibition (GI%)
HCT-15 (colon cancer) = experiment: NCI-60 SRB cytotoxicity screen; format: cell-based; conditions: Homo sapiens; HCT-15, single dose 10 μM; read-out: growth inhibition (GI%)
SF-539 (CNS cancer) = experiment: NCI-60 SRB cytotoxicity screen; format: cell-based; conditions: Homo sapiens; SF-539, single dose 10 μM; read-out: growth inhibition (GI%)
[7] = system: NCI-H226 (non-small cell lung cancer); experiment: NCI-60 SRB cytotoxicity screen; format: cell-based; conditions: Homo sapiens; NCI-H226, single dose 10 μM; read-out: growth inhibition (GI%)
[8] = system: EKVX (non-small cell lung cancer); experiment: NCI-60 SRB cytotoxicity screen; format: cell-based; conditions: Homo sapiens, single dose 10 μM, read-out: growth inhibition (GI%)
MDA-MB-435 (melanoma) = experiment: NCI-60 SRB cytotoxicity screen; format: cell-based; conditions: Homo sapiens, MDA-MB-435, read-out: growth inhibition (GI%);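 also: growth inhibition in percent at a single 10 µM dose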
ACHN (renal cancer) = experiment: NCI-60 SRB cytotoxicity screen; format: cell-based; conditions: Homo sapiens, single dose 10 μM, read-out: growth inhibition (GI%)
OVCAR-4 (ovarian cancer) = experiment: NCI-60 SRB cytotoxicity screen; format: cell-based; conditions: Homo sapiens; OVCAR-4, single dose 10 μM; read-out: growth inhibition (GI%)
SN12C (renal cancer) = experiment: NCI-60 SRB cytotoxicity screen; format: cell-based; conditions: Homo sapiens, single dose 10 μM, read-out: growth inhibition (GI%)
786-0 (renal cancer) = experiment: NCI-60 SRB cytotoxicity screen; format: cell-based; conditions: Homo sapiens; 786-0, single dose 10 μM; read-out: growth inhibition (GI%)
OVCAR-8 (ovarian cancer) = experiment: NCI-60 SRB cytotoxicity screen; format: cell-based; conditions: Homo sapiens; OVCAR-8, single dose 10 μM; read-out: growth inhibition (GI%)
TK-10 (renal cancer) = experiment: NCI-60 SRB cytotoxicity screen; format: cell-based; conditions: Homo sapiens; TK-10, single dose 10 μM; read-out: growth inhibition (GI%)
M14 (melanoma) = experiment: NCI-60 SRB cytotoxicity screen; format: cell-based; conditions: Homo sapiens; M14, single dose 10 μM; read-out: growth inhibition (GI%)
HT29 (colon cancer) = experiment: NCI-60 SRB cytotoxicity screen; format: cell-based; conditions: Homo sapiens, HT-29; HT29, single dose 10 μM; read-out: growth inhibition (GI%)

## CCc1cccc2cc(-c3cc(-c4ccc(F)cc4)[nH]c(=O)c3C#N)c(Cl)nc12 [Compound 4d, 4-(2-Chloro-8-ethylquinolin-3-yl)-6-(4-fluorophenyl)-2-oxo-1,2-dihydropyridine-3-carbonitrile]
CAKI-1 (renal cancer)
  inhibition at 10 µM: 19.5%
SNB-75 (CNS cancer)
  inhibition at 10 µM: < 10%
A498 (renal cancer)
  inhibition at 10 µM: < 10%
SK-MEL-2 (melanoma)
  inhibition at 10 µM: < 10%
other
  melting point: 260 to 262 °C
PC-3 (prostate cancer)
  inhibition at 10 µM: < 10%
MALME-3M (melanoma)
  inhibition at 10 µM: < 10%
SK-OV-3 (ovarian cancer)
  inhibition at 10 µM: < 10%
LOX IMVI (melanoma)
  inhibition at 10 µM: 15.3%
[1]
  inhibition at 10 µM: < 10%
CCRF-CEM (leukemia)
  inhibition at 10 µM: < 10%
[2]
  inhibition at 10 µM: < 10%
MOLT-4 (leukemia)
  inhibition at 10 µM: 15%
[3]
  inhibition at 10 µM: 19.9%
UO-31 (renal cancer)
  inhibition at 10 µM: 27.9%
OVCAR-5 (ovarian cancer)
  inhibition at 10 µM: < 10%
[4]
  inhibition at 10 µM: < 10%
[5]
  inhibition at 10 µM: < 10%
SF-295 (CNS cancer)
  inhibition at 10 µM: < 10%
U251 (CNS cancer)
  inhibition at 10 µM: < 10%
SW-620 (colon cancer)
  inhibition at 10 µM: < 10%
UACC-257 (melanoma)
  inhibition at 10 µM: < 10%
[6]
  inhibition at 10 µM: < 10%
HCT-15 (colon cancer)
  inhibition at 10 µM: 11.1%
SF-539 (CNS cancer)
  inhibition at 10 µM: < 10%
[7]
  inhibition at 10 µM: 14.3%
[8]
  inhibition at 10 µM: < 10%
MDA-MB-435 (melanoma)
  inhibition at 10 µM: < 10%
ACHN (renal cancer)
  inhibition at 10 µM: < 10%
OVCAR-4 (ovarian cancer)
  inhibition at 10 µM: 11%
SN12C (renal cancer)
  inhibition at 10 µM: < 10%
786-0 (renal cancer)
  inhibition at 10 µM: < 10%
OVCAR-8 (ovarian cancer)
  inhibition at 10 µM: < 10%
TK-10 (renal cancer)
  inhibition at 10 µM: < 10%

## CCc1cccc2cc(-c3cc(-c4ccc(OC)c(OC)c4)[nH]c(=S)c3C#N)c(Cl)nc12 [Compound 5b, 4-(2-Chloro-8-ethylquinolin-3-yl)-6-(3,4-dimethoxyphenyl)-2-thioxo-1,2-dihydropyridine-3-carbonitrile]
CAKI-1 (renal cancer)
  inhibition at 10 µM: 45.8%
SNB-75 (CNS cancer)
  inhibition at 10 µM: 10.8%
SK-MEL-2 (melanoma)
  inhibition at 10 µM: < 10%
other
  melting point: 280 to 282 °C
PC-3 (prostate cancer)
  inhibition at 10 µM: 21.3%
MALME-3M (melanoma)
  inhibition at 10 µM: < 10%
SK-OV-3 (ovarian cancer)
  inhibition at 10 µM: < 10%
M14 (melanoma)
  inhibition at 10 µM: < 10%
LOX IMVI (melanoma)
  inhibition at 10 µM: < 10%
[1]
  inhibition at 10 µM: < 10%
CCRF-CEM (leukemia)
  inhibition at 10 µM: 28.8%
[2]
  inhibition at 10 µM: 47.4%
MOLT-4 (leukemia)
  inhibition at 10 µM: 44.3%
[3]
  inhibition at 10 µM: 19.1%
UO-31 (renal cancer)
  inhibition at 10 µM: 23.3%
OVCAR-5 (ovarian cancer)
  inhibition at 10 µM: < 10%
[4]
  inhibition at 10 µM: < 10%
[5]
  inhibition at 10 µM: 19.7%
SF-295 (CNS cancer)
  inhibition at 10 µM: 16.5%
U251 (CNS cancer)
  inhibition at 10 µM: 13.7%
SW-620 (colon cancer)
  inhibition at 10 µM: < 10%
UACC-257 (melanoma)
  inhibition at 10 µM: < 10%
[6]
  inhibition at 10 µM: 24.9%
HCT-15 (colon cancer)
  inhibition at 10 µM: 12.2%
SF-539 (CNS cancer)
  inhibition at 10 µM: 22%
[7]
  inhibition at 10 µM: 20.3%
[8]
  inhibition at 10 µM: 23.9%
MDA-MB-435 (melanoma)
  inhibition at 10 µM: < 10%
ACHN (renal cancer)
  inhibition at 10 µM: 15.7%
OVCAR-4 (ovarian cancer)
  inhibition at 10 µM: 22.4%
SN12C (renal cancer)
  inhibition at 10 µM: 21.7%
786-0 (renal cancer)
  inhibition at 10 µM: 18.7%
OVCAR-8 (ovarian cancer)
  inhibition at 10 µM: 31.5%
TK-10 (renal cancer)
  inhibition at 10 µM: < 10%

## CCc1cccc2cc(C3C=C(c4ccc(Br)cc4)NC(=S)N3)c(Cl)nc12 (stereo not shown) [Compound 6e, 6-(4-Bromophenyl)-4-(2-chloro-8-ethylquinolin-3-yl)-3,4-dihydropyrimidine-2(1H)-thione]
CAKI-1 (renal cancer)
  inhibition at 10 µM: 10.4%
SNB-75 (CNS cancer)
  inhibition at 10 µM: < 10%
A498 (renal cancer)
  inhibition at 10 µM: < 10%
SK-MEL-2 (melanoma)
  inhibition at 10 µM: < 10%
PC-3 (prostate cancer)
  inhibition at 10 µM: < 10%
MALME-3M (melanoma)
  inhibition at 10 µM: < 10%
SK-OV-3 (ovarian cancer)
  inhibition at 10 µM: 10.7%
M14 (melanoma)
  inhibition at 10 µM: < 10%
LOX IMVI (melanoma)
  inhibition at 10 µM: < 10%
[1]
  inhibition at 10 µM: < 10%
CCRF-CEM (leukemia)
  inhibition at 10 µM: < 10%
[2]
  inhibition at 10 µM: < 10%
MOLT-4 (leukemia)
  inhibition at 10 µM: 26.2%
[3]
  inhibition at 10 µM: < 10%
UO-31 (renal cancer)
  inhibition at 10 µM: 32.7%
OVCAR-5 (ovarian cancer)
  inhibition at 10 µM: < 10%
[4]
  inhibition at 10 µM: < 10%
[5]
  inhibition at 10 µM: < 10%
SF-295 (CNS cancer)
  inhibition at 10 µM: < 10%
U251 (CNS cancer)
  inhibition at 10 µM: < 10%
SW-620 (colon cancer)
  inhibition at 10 µM: < 10%
UACC-257 (melanoma)
  inhibition at 10 µM: < 10%
[6]
  inhibition at 10 µM: < 10%
HCT-15 (colon cancer)
  inhibition at 10 µM: < 10%
SF-539 (CNS cancer)
  inhibition at 10 µM: < 10%
[7]
  inhibition at 10 µM: < 10%
[8]
  inhibition at 10 µM: < 10%
HT29 (colon cancer)
  inhibition at 10 µM: 11.9%
MDA-MB-435 (melanoma)
  inhibition at 10 µM: < 10%
ACHN (renal cancer)
  inhibition at 10 µM: < 10%
OVCAR-4 (ovarian cancer)
  inhibition at 10 µM: 10.2%
SN12C (renal cancer)
  inhibition at 10 µM: < 10%
786-0 (renal cancer)
  inhibition at 10 µM: < 10%
OVCAR-8 (ovarian cancer)
  inhibition at 10 µM: < 10%
TK-10 (renal cancer)
  inhibition at 10 µM: < 10%
